Laboratory results: patent publication US9365851B2, “Spalt-like transcription factor 4 (SALL4) and uses thereof” (National University of Singapore, priority 2011, dated 2016)

What was measured:
PTEN = PTEN expression upon SALL4 gene knockdown in HCC cells (qPCR, Western blot densitometry); format: cell-based, human; settings: day 4 post-transduction
Excerpt: FIGS. 26A-26C: PTEN repression as a mechanism of SALL4-induced HCC. (26A) qPCR analysis of PTEN expression upon SALL4 gene knockdown. […] E5 shRNA is a shRNA specifically targets SALL4. (26B) Western blot analysis of PTEN protein expression upon SALL4 gene knockdown using fractionated nuclear (N) and cytoplasmic […] lysates. A total cell lysate (T) was used for protein expression analysis too. SALL4 is exclusively present in cell nuclei (left). Densitometry analysis of total PTEN expression (top right) and cytoplasmic PTEN expression (bottom right).
PTEN expression upon SALL4 gene knockdown was investigated by qPCR and western blot.

HuH-7 and SNU-398 cells = test: In vivo tumorigenicity of shRNA-transduced HCC cells in NOD/SCID mice
Procedure: 4- to 8-week-old NOD/SIC mice were used. Animal work was done at the Childrens Hospital Boston (CHB) with approval from IACUC. 10×10^6 SNU-398 or 6×10^6 HuH-7 cells infected with viruses expressing scrambled shRNA or E5 shRNA specific for SALL4 (total 300 μL of cell suspension and matrigel in 1:1 ratio) were injected subcutaneously (s.c.) into NOD/SCID mice on the right flank. After injection, mice were examined and tumor volumes were measured at various time points. Tumor volume=π/6×larger diameter×(smaller diameter)^2. Tumor samples were processed for routine histology examination.
A decrease in tumorigenicity in SALL4-knockdown HCC cells was anticipated and an in vivo transplantation assay was carried out to confirm this hypothesis. HuH-7, another HCC cell line with considerably high endogenous SALL4 expression, and SNU-398 cells were transduced with lentivirus expressing either E5 shRNA or control scrambled shRNA and transplanted subcutaneously into right flank of NOD/SCID mice.
To examine if SALL4 has a role in maintaining tumorigenicity of HCC cells, in vivo xenotransplantation assays were carried out. HuH-7 and SNU-398 cells were transduced with lentviruses expressing either shSALL4 1 or Scr shRNA 1 and transplanted subcutaneously into the flanks of NOD/SCID mice.

HDAC1 and HDAC2 = test: Anti-FITC pull-down from HL60 cell lysates, immunoblot for HDAC1 and HDAC2; format: binding, human
Procedure: FIG. 18: SALL4 peptide interacts with various components of the NuRD complex. Cell lysates from HL60 cells were mixed with wild type (wt) or mutant (mut) peptides end-labeled with FITC and immunoprecipitated with anti-FITC antibody (Santa Cruz). The complexes were pulled down with Dynabeads Antibody Coupling Kit (Invitrogen) according to the manufacturer's instructions. The samples were immunoblotted and probed for HDAC1 and HDAC2. […] The specificity was tested with mouse IgG instead of anti-FITC antibody.

SALL4 = SALL4 RNA knock-down in primary AML cells (qRT-PCR); format: cell-based, human; settings: qRT-PCR normalized to GAPDH
Excerpt: FIG. 6: Down-regulation of SALL4 in primary AML led to cell death. (6A) Down-regulation of SALL4 in primary AML cells. The ability of shRNA constructs 7412 to knock down SALL4 mRNA in AML cells were confirmed by qRT-PCR with normalization to GAPDH. The expression of SALL4 RNA in AML cells that were infected with SALL4 shRNA (7412)-expressing retroviruses was reduced to 35% of those infected with scrambled pRS control vectors, a shRNA pRS against non-effective GFP sequence from OriGene Technologies, Inc., Rockville Md. (N=3, Error Bars: +/−SD). (6B) Increased apoptosis and cell death were observed via flow cytometry in AML cells upon SALL4 knock down by Annexin V/PI staining. Control scrambled shRNA-infected cells and SALL4 shRNA-infected cells were analyzed 24 to 48 h post transduction. Data were derived from four independent experiments. (6C-6F) Leukemia development in xenotransplant recipient mice. AML is defined as blast count more than 20% in peripheral blood and/or bone marrow with multiple organ involvements observed in recipient mice. Blasts were present in liver (6C, ×200), spleen (6D, ×200), and bone marrow (6E, ×200), and were human CD45 positive (6F). […]

Substance: CTATTTAGCCAAAGGCAAA (short hairpin RNA, chemistry and delivery not given here, further chemistry not given here) [E5 shRNA]
- increase of PTEN mRNA (PTEN): 16.5%
- mice with tumor formation (HuH-7 and SNU-398 cells; HuH-7, subcutaneous, n=3): one out of the three
- ability of cells to propagate tumors (HuH-7 and SNU-398 cells; HuH-7 and SNU-398): greatly reduced the ability of these cells to propagate tumors
- survival of mice (HuH-7 and SNU-398 cells; HuH-7 and SNU-398, Kaplan-Meier): significant survival advantage

Substance: H-MSRRKQAKPQHI-OH [wt peptide, MSRRKQAKPQHI]
- binding to HDAC1 and HDAC2 (HDAC1 and HDAC2): several folds higher activity than the mutant

Substance: GATGCCTTGAAACAAGCCAAGCTACCTCA (chemistry not given here) [compound 7412, SALL4 shRNA used in primary AML cells]
- SALL4 RNA expression relative to scrambled control (SALL4): 35%
